“And” between values parts separate entries of the source, which are not always exact repeats. Equal values may be shown once.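 Growth conditions: 96-well plates. Treatment: test compound, 48 hours, 5 concentrations. Analysis: linear interpolation between bracketing concentrations; unreached endpoints set to highest concentration. At the GI50, growth is halved. TGI is the concentration that stops growth completely.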
Experiments:
Assay in all cases: NCI anticancer screen, dose series, 48 h; in the data active means GI50 below about 0.43 µM; inactive means the rest
[1] = test system: SF-268 CNS
[2] = test system: XF 498 CNS
[3] = test system: SNB-78 CNS
[4] = test system: SN12C renal
[5] = test system: OVCAR-3 ovarian
[6] = test system: M19-MEL melanoma
[7] = test system: KM12 colon
[8] = test system: A498 renal
[9] = test system: A549 NSCLC
[10] = test system: TK-10 renal
[11] = test system: DLD-1 colon
[12] = test system: KM20L2 colon
[13] = test system: HL-60(TB) leukemia
[14] = test system: OVCAR-5 ovarian
[15] = test system: LOX IMVI melanoma
[16] = test system: DMS 273 small cell lung
[17] = test system: SK-MEL-2 melanoma
[18] = test system: HCC-2998 colon
[19] = test system: RXF-631 renal
[20] = test system: SNB-75 CNS
[21] = test system: ACHN renal
[22] = test system: LXFL 529 NSCLC
[23] = test system: DMS 114 small cell lung
[24] = test system: HOP-18 NSCLC
[25] = test system: MALME-3M melanoma
[26] = test system: M14 melanoma
[27] = test system: COLO 205 colon
[28] = test system: 786-0 renal
[29] = test system: HCT-116 colon
[30] = test system: RXF 393 renal
[31] = test system: OVCAR-4 ovarian
[32] = test system: NCI-H460 lung
[33] = test system: SK-MEL-28 melanoma
[34] = test system: SF-539 CNS
[35] = test system: NCI-H23 lung
[36] = test system: UACC-257 melanoma
[37] = test system: UACC-62 melanoma
[38] = test system: SNB-19 CNS
[39] = test system: SK-OV-3 ovarian
[40] = test system: HT29 colon
[41] = test system: NCI-H522 lung
[42] = test system: OVCAR-8 ovarian
[43] = test system: SW-620 colon
[44] = test system: SK-MEL-5 melanoma
[45] = test system: NCI-H226 lung
[46] = test system: EKVX NSCLC
[47] = test system: MOLT-4 leukemia
[48] = test system: CAKI-1 renal
[49] = test system: SF-295 CNS
[50] = test system: K-562 leukemia
[51] = test system: IGROV1 ovarian
[52] = test system: CCRF-CEM leukemia
[53] = test system: SR leukemia
[54] = test system: HOP-62 NSCLC
[55] = test system: RPMI-8226 leukemia
[56] = test system: UO-31 renal
[57] = test system: U251 CNS
[58] = test system: HCT-15 colon
[59] = test system: HOP-92 NSCLC

COC1OC(COC(C)=O)C(OC(C)=O)C(OC(C)=O)C1NC(=O)N(CCCl)N=O (configuration not stated)
74 µM and > 100 µM: TGI [13]
inactive: GI50 [34] > 100 µM and 24.7 µM | GI50 [47] 26.2 µM and > 100 µM | GI50 [52] 15.2 µM and 90.3 µM
> 100 µM: TGI [1] | TGI [2] | TGI [3] | TGI [4] | TGI [5] | TGI [6] | TGI [7] | TGI [8] | TGI [9] | TGI [10] | TGI [11] | TGI [12] | TGI [14] | TGI [15] | TGI [16] | TGI [17] | TGI [18] | TGI [19] | TGI [20] | TGI [21] | TGI [22] | TGI [23] | TGI [24] | TGI [25] | TGI [26] | TGI [27] | TGI [28] | TGI [29] | TGI [30] | TGI [31] | TGI [32] | TGI [33] | TGI [35] | TGI [36] | TGI [37] | TGI [38] | TGI [39] | TGI [40] | TGI [41] | TGI [42] | TGI [43] | TGI [44] | TGI [45] | TGI [46] | TGI [47] | TGI [48] | TGI [49] | TGI [50] | TGI [51] | TGI [52]
> 100 µM and 91.7 µM: TGI [34]

Clc1cccc(Cl)c1C1SCc2nc3ccccc3n21 (configuration not stated)
41.7 µM: TGI [19]
> 100 µM: TGI [1] | TGI [2] | TGI [3] | TGI [53] | TGI [54] | TGI [4] | TGI [5] | TGI [6] | TGI [7] | TGI [8] | TGI [9] | TGI [10] | TGI [11] | TGI [12] | TGI [13] | TGI [14] | TGI [15] | TGI [16] | TGI [18] | TGI [20] | TGI [21] | TGI [22] | TGI [23] | TGI [24] | TGI [25] | TGI [26] | TGI [27] | TGI [28] | TGI [29] | TGI [30] | TGI [31] | TGI [32] | TGI [34] | TGI [55] | TGI [35] | TGI [36] | TGI [37] | TGI [38] | TGI [39] | TGI [56] | TGI [40] | TGI [41] | TGI [42] | TGI [43] | TGI [57] | TGI [45] | TGI [58] | TGI [46] | TGI [47] | TGI [59] | TGI [48] | TGI [49] | TGI [50] | TGI [51] | TGI [52]
67 µM: TGI [44]
